Measured values: US5096925A, “N-substituted butyramide derivatives” (Ciba-Geigy Corporation, priority 1990, dated 1992)
Values belong to the molecule of their own block, whether it stands above or below them.

Columns and labels:
enkephalinase [1] = assay: in vivo potentiation of the analgesic effect of met-enkephalin (enkephalinase inhibitory activity in vivo); design: species or system mouse; conditions: met-enkephalin (20 ug), intracerebroventricular administration
Method: (§1) The enkephalinase inhibitory activity can be determined in vivo, e.g. by measuring the potentiation of the analgesic activity of intracerebrally administered D-Ala^2 -met^5 -enkephalinamide or met-enkephalin in mice. The enkephalinase inhibitory activity is also determined in vivo by measuring the increase in endogenous brain enkephalin levels, or by direct measurement of striatum enkephalinase activity in mice.

[2] = hot plate test for analgesia in the mouse (mean response latency); type: in vivo; conditions: for dose that increases the mean response latency in the hot plate test: mice, intracerebroventricular administration
Excerpt: The analgesic activity is demonstrable by potentiation of the analgesic effects of enkephalin and derivatives thereof, and by classical analgesic tests, such as the phenyl-p-benzoquinone induced writing test [J. Pharmacol. Exp. Therap. 125, 237 (1959)] and the hot plate test in the mouse [J. Pharmaol. Exp. Therap. 107, 385 (1953)].
The analgesic activity can be measured by the hot-plate test method in the mouse as follows and essentially as described in J. Pharmacol. Exp. Therap. 107, 385 (1953).
The compound is administered intravenously or intracerebroventricularly 15 minutes prior to the measurement of the response latency. Male CF, (Charles River) mice (20 g) are allowed food and water ad libitum up to the time of testing. The hot plate test for analgesia utilizes an apparatus with an electrically heated, thermostatically controlled copper plate (Analgesia Meter). A Plexiglas cylinder, 25.5 cm×16 cm (inner diameter) and open at both ends, confines the mice to the central area of the hot plate. The surface temperature is maintained at 55°±0.5° C. Response latency is recorded as the time (seconds) from contact with the hot plate until a jump occurs or at 240 seconds if no response occurs within this time. Animals are individually tested at 15 minutes following intravenous or intracerebroventricular (ICV) injection. Intracerebroventricular injections into the lateral ventricle are carried out according to the method of Haley and McCormick, as described in Brit. J. Pharmacol. 12; 12, 1957.
The mean response latency and standard error are calculated. Significance is determined using Student's unpaired t-test, 2-tailed comparison.

enkephalinase [3] = biological target: T1, enkephalinase (Rattus norvegicus, UniProt P07861); assay: in vitro inhibition of enkephalinase (3H-Tyr-gly-gly generation from 3H-Leu-enkephalin, synaptic membranes from rat striatum); type: biochemical; conditions: rat striatum synaptic membrane preparation, pH 6-5, 15 minutes at 30° C., 10^-6 M Bestatin
T1 construct: synaptic membrane preparation from rat striatum; from tissue; host or cells: rat striatum, synaptic membrane preparation
T1 sequence (P07861 1-750): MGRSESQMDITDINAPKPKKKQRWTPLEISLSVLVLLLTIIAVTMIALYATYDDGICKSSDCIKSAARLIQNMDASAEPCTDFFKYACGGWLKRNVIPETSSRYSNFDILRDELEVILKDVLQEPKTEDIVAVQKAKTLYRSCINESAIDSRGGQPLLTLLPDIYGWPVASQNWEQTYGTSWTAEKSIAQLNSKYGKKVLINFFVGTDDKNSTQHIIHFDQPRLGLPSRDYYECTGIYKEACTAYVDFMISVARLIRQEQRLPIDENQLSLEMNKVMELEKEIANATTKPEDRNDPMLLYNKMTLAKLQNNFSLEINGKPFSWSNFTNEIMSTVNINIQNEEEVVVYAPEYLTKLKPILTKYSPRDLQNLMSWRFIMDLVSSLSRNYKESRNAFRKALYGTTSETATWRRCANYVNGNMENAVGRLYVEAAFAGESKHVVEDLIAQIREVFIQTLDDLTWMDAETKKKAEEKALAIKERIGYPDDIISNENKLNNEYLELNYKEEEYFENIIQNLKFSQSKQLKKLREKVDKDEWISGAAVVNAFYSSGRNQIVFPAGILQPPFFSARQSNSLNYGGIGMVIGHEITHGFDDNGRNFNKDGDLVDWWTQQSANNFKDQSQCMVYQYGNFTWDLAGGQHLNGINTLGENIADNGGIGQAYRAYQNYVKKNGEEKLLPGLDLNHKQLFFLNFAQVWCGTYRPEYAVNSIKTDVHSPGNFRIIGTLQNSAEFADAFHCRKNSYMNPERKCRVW
Method: The enkephalinane inhibitory activity is determined in vitro by an adaptation of the method of Alstein et al. as described in Life Sciences 28, 185 (1981), as follows:
A mixture of a solution of the test compound in distilled water or distilled water and ethanol diluted with pH 6-5 buffer and of a synaptic membrane preparation from rat striatum is incubated at pH 6-5 with ^3 H-Leu-enkephalin for 15 minutes at 30° C., in the presence of 10^-6 M Bestatin (to inhibit aminopeptidase activity). The reaction is stopped by the addition of 30% acetic acid and the reaction product ^3 H-Tyr-gly-gly is separated from unreacted ^3 H-Leu-enkephalin on a Porapak O column followed by a Cu^++ -chelex column. The ^3 H-Tyr-gly-gly is counted by liquid scintillation. The amount of ^3 H-Tyr-gly-gly generated in the presence of test compound as compared to control is then calculated. An IC50 value representing the concentration of test compound required for 50% inhibition of ^3 H-Tyr-gly-gly generation is then determined graphically.

enkephalinase [4] = assay: in vivo potentiation of the analgesic effect of D-Ala^2-Met^5-enkephalinamide (enkephalinase inhibitory activity in vivo); design: species or system mouse; conditions: s.c.
Method: as §1

SMILES: CCOC(=O)[C@@H](Cc1ccccc1)C[C@H](Cc1ccccc1)C(=O)NCCC(=O)O (relative stereo) [N-[4-ethoxycarbonyl-(R*,R*)-2,4-dibenzylbutyryl]-3-aminopropionic acid]
dose that potentiates the analgesic effect of met-enkephalin (enkephalinase [1]): about 0.01 ug
dose that increases the mean response latency in the hot plate test [2]: ~0.03 µg

SMILES: CC1(C)O[C@@H]2[C@@H](COC(=O)CCNC(=O)[C@H](Cc3ccccc3)C[C@@H](Cc3ccccc3)C(=O)O)OC(=O)[C@@H]2O1 [17/6, 2,3-O-isopropylidene-D-ribono-(1,4-lactone)-5-yl N-(2S,4S-dibenzyl-4-carboxybutyryl)-3-aminopropionate]
dose that potentiates the analgesic effect of D-Ala^2-Met^5-enkephalinamide (enkephalinase [4]): 30 mg/kg

SMILES: CC1(C)O[C@H]2O[C@H]([C@H]3COC(C)(C)O3)[C@H](OC(=O)CCNC(=O)[C@H](Cc3ccccc3)C[C@@H](Cc3ccccc3)C(=O)O)[C@H]2O1 [Example 17/10, 1,2:5,6-di-O-isopropylidene-D-glucofuranos-3-yl N-(2S,4S-dibenzyl-4-carboxybutyryl)-3-aminopropionate]
minimal effective dose ([2]; iv, 0.25 h, mouse, effective at the dose "and lower"): ≤ 30 mg/kg

SMILES: O=C(O)CCNC(=O)[C@H](Cc1ccccc1)C[C@@H](Cc1ccccc1)C(=O)O [N-(2S,4S-dibenzyl-4-carboxybutyryl)-3-aminopropionic acid]
IC50 (enkephalinase [3]): ~8 nM

Second part, led by results:

IC50 (enkephalinase [3]): ~20 nM
SMILES: O=C(O)CCNC(=O)[C@@H](Cc1ccccc1)C[C@H](Cc1ccccc1)C(=O)O (relative stereo) [N-[(R*,R*)-2,4-dibenzyl-4-carboxybutyryl]-3-aminopropionic acid]

IC50 (enkephalinase [3]): ~20 nM
SMILES: O=C(O)CCCNC(=O)[C@@H](Cc1ccccc1)C[C@H](Cc1ccccc1)C(=O)O (relative stereo) [N-[(R*,R*)-2,4-dibenzyl-4-carboxybutyryl]-4-aminobutyric acid]
dose that increases the mean response latency in the hot plate test [2]: about 0.1 ug
